No end group written: not given here. *: point of attachment. Biotin = O=C1N[C@H]2[C@H](CS[C@H]2CCCCC(=O)*)N1
How the values were obtained:
[1] = test system: human blood cancer cell lines (K562, HEL, HL60); experiment: MTT cell viability, human blood cancer cell lines; type: cell-based; conditions: 0-10 μM, 24-96 h
Experimental: (§1) Liver cancer cell lines (HepG2, Hep3B) were inoculated into 96-well plates at a density of 3000 cells/well, and then 50 μl of culture solution was added thereto. Cells were cultured at 37° C. and 5% CO2 for 1 h. […] Cells were cultured at 37° C. and 5% CO2 for 24, 48, 72, and 96 h. After completion of the culture, the remaining culture solution was removed from the well plates, the cultures were diluted with MTT solution (3-(4,5-dimethylthiazol-2-yl)-2,5-diphenyltetrazole bromide) to a final density of 500 μg/ml, and cells were cultured at 37° C. and 5% CO2 for 3 h. The remaining MTT solution was removed and 150 μl of dimethyl sulfoxide (DMSO) was added. The reaction was carried out at room temperature for 20 min. After completion of the reaction, absorbance was measured using a microplate reader.

[2] = test system: liver cancer cell lines (HepG2, Hep3B); experiment: MTT cell viability, liver cancer cell lines; type: cell-based, human; conditions: 0-10 μM, 24-96 h
Experimental: as §1

[3] = test system: cancer cell lines (HepG2, Hep3B, 293T, MCF-7, MDA-MB-231, K562, HEL, HL60, U251, U373MG, U87MG); experiment: Microscopic observation of growth inhibition and apoptosis, cancer cell lines; type: cell-based, human; conditions: 2 μM, 48 h
Experimental: (§2) Liver cancer cell lines (HepG2, Hep3B), a human embryonic kidney cell line (293T), breast cancer cell lines (MCF-7, MDA-MB-231), blood tumor cell lines (K562, HEL, HL60), glioblastoma cell lines (U251, U373MG, U87MG), a mammary epithelial cell line (MCF10A), a lung epithelial cell line (BEAS2B), human mesenchymal stem cells (hMSCs), and mouse primary T cells (resting and activated T cells) were inoculated into 96-well plates at a density of 3,000 cells/well, supplemented with 50 μl of culture solution, and cultured at 37° C. and 5% CO2 for 1 h. […] After completion of the culture, cells were observed under an inverted phase contrast microscope and their morphological changes were imaged.

[4] = test system: BEAS2B and MCF10A normal epithelial cell lines
Experimental: as §1

[5] = test system: normal cell lines (MCF10A, BEAS2B, hMSCs, mouse primary T cells)
Experimental: as §2

[6] = test system: human embryonic kidney cancer cell line (293T); experiment: MTT cell viability, 293T; type: cell-based; conditions: 0-10 μM, 24-96 h
Experimental: as §1

[7] = test system: breast cancer cell lines (MCF7, MDA-MB-231); experiment: MTT cell viability, breast cancer cell lines; type: cell-based, human; conditions: 0-10 μM, 24-96 h
Experimental: as §1

[8] = test system: human embryonic stem cells (hESCs, H9)
From the text: MEF cells labeled with rhodamine were often used to distinguish them from hESC-derived cells.

[9] = test system: CP2c; experiment: Luciferase reporter assay of CP2c transcriptional activity in 293T cells; type: cell-based, human; conditions: 2 μM, 48 h, wild-type CP2c binding sites, compared with FQI1
Experimental: 293T cells were inoculated into a 12-well plate at a density of 1×10^5 cells/well. 12 h after inoculation, cells were transfected with combinations of a reporter vector (the wild-type reporter links the enhancer sequence of the GATA-1 gene including twice repeated CP2c-binding sites to the upstream of the luciferase gene and Mut 1/3, Mut 2/4, and Mut 1-4 reporters cause mutations of the CP2c binding sites present in the enhancer sequence) and various Flag-CP2c, HA-CP2b, and HA-PIAS1 expression vectors by using the effectene method. After 1-h culture, cells were treated with FQI1, Peptide 5C, and Peptide 5-2C at concentrations of 2 μM, followed by 48-h culture. Cells were harvested and lysed in 250 μl of passive cell lysis buffer (Promega) to obtain an extract. 20 μl of the cell extract and a dual-luciferase assay kit (Promega) were used to measure the activity of the labeled luciferase gene in GLOMAX (Promega) (the expression of each expression vector was confirmed by Western blotting).

[10] = test system: glioblastoma cell lines (U251, U87MG, U343); experiment: MTT cell viability, glioblastoma cell lines; type: cell-based, human; conditions: 0-10 μM, 24-96 h
Experimental: as §1

[11] = target: T1, CP2c (Mus musculus, UniProt Q9ERA0); experiment: DNA immunoprecipitation (DIP) assay of CP2c-DNA binding; conditions: 0.2, 0.5, and 1 μg peptide; MEL nuclear extract; α-globin promoter probe
T1 construct: 5 μg of the nuclear extract and an [α-32p] dCTP-labeled DNA probe; endogenous in cells; host or cells: MEL (murine erythroid leukemia) cells, HMBA-differentiated, nuclear extract
T1 sequence (Q9ERA0 1-502): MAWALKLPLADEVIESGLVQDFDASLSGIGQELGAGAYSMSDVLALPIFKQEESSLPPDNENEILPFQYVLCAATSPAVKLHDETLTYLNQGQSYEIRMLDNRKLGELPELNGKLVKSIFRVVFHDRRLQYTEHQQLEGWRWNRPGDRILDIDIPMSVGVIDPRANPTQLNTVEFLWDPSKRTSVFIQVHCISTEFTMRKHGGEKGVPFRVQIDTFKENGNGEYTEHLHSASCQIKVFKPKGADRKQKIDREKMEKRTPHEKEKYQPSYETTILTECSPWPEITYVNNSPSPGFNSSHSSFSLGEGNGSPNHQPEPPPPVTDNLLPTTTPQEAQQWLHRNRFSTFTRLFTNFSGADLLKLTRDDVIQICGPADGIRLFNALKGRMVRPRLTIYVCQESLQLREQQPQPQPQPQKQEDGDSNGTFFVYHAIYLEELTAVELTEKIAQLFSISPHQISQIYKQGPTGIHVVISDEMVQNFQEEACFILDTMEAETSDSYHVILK
Experimental: To analyze whether the five peptides identified in Example 1.1 bind to CP2c in cells to affect the ability of CP2c to bind to DNA, DNA immunoprecipitation (DIP) assay was performed as disclosed in another preceding research conducted by the present inventors (Kim et al., A DNA immunoprecipitation assay used in quantitative detection of in vitro DNA-protein complex binding, Analytical Biochemistry. 2013; 441: 147-151).
In summary, the differentiation of a murine erythroid leukemia (MEL) cell line was induced by treatment with 5 mM hexamethylene bisacetamide (HMBA) and, on day 2 after differentiation, a cellular nuclear extract was separated. […]
Subsequently, 5 μg of the nuclear extract and an [α-32p] dCTP-labeled DNA probe (a sequence corresponding to the common CP2c binding site present in mouse α-globin promoter and between −156 and −124 in the start codon of the α-globin gene, see the paper of Kim et al. for details of the sequence) were allowed to react with a binding buffer (4% glycerol, 10 mM Tris-HCl, 1 mM DTT, 1 mM EDTA, and 0.1% NP-40) for 15 min, and gradually increasing amounts (0.2, 0.5, and 1 μg) of the identified CP2c binding peptides (Peptide 5, Peptide 8, Peptide 13, Peptide 21, and Peptide 31) were added thereto. […] The CP2c protein was removed from the DNA probe and the remaining amount of the DNA probe was measured using a scintillation counter. […]

[12] = target: T1, CP2c; conditions: Kim et al., Analytical Biochemistry 2013; cited from earlier work
[13] = test system: MDA-MB-231 cell line and MCF7 cell line; experiment: MTT assay of Peptide 5-2CB; type: cell-based, human
From the text: To support this assumption, a CP2c protein region with which Peptide 5-2C interacts and amino acids in the region directly binding to Peptide 5-2C need to be identified. Thus, an attempt was made to obtain mutant CP2c proteins in which polar amino acids present in the CP2c region binding with Peptide 5 shown in FIG. 1 were substituted with Ala and analyze the binding of the mutant CP2c proteins with Peptide 5-2C by enzyme-linked immunosorbent assay (ELISA). To facilitate this analysis, Peptide 5-2CB was synthesized in which biotin tag is bonded to the C-terminal Pro residue of Peptide 5-2C. To confirm whether Peptide 5-2CB induces cancer cell-specific growth interruption and apoptosis, like Peptide 5-2C, MTT assay was conducted on two different batches of Peptide 5-2CB in MDA-MB-231 cell line and MCF7 cell line by the same method as in Example 5.1. IC50 values were also calculated from the results of MTT assay. To obtain 19 mutant CP2c proteins in which polar amino acids present in the CP2c region binding with Peptide 5-2C were substituted with Ala, oligonucleotides having sequences encoding the corresponding mutant amino acids were synthesized and site-directed mutagenesis was carried out. The base sequences encoding the mutant CP2c genes were cloned into the pGEX4 vector and mutant GST-fusion CP2c proteins were purified using beads bound with antibody against GST-tag. […]

[14] = target: T2, GST-CP2c wild type (UniProt Q9ERA0 Q9ERA0:1-502); experiment: pulldown; DNA-IP, values only in figure; conditions: tags: GST fusion, E. coli; label: 32P
T2 sequence: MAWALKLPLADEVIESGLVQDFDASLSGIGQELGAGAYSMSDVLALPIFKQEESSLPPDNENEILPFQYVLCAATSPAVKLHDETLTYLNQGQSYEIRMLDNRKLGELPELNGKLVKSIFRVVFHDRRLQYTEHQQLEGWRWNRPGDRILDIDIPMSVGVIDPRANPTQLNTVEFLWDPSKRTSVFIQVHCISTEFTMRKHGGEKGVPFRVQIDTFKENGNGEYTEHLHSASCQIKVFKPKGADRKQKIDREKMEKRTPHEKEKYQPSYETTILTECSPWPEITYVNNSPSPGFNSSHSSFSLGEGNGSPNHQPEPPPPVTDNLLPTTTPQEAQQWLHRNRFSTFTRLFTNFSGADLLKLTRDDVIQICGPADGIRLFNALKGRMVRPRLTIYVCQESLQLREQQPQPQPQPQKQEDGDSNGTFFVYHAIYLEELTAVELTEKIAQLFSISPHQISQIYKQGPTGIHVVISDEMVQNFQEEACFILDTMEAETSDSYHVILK

Question: With “Ac-HERRESNYPQRPCRGCRGDKGPDC-Amide (Ac-HERRESNYPQRPCRGCRGDKGPDC-NH2; ends and bridges not checked) [Peptide 5C]” as the molecule, how does the “relative viability (MTT), K562, HEL, HL60, compared with FQI1” value [1] read?
Answer: slightly effectively inhibited the growth of the glioblastoma cell lines and induced apoptosis compared to FQI1

Question: And the “relative viability (MTT), liver cancer cell lines, compared with FQI1” value [2]?
Answer: more effectively inhibited the growth of the liver cancer cell lines and induced apoptosis than FQI1

Question: What about the “growth inhibition and apoptosis induction of cancer cell lines (microscopy)” value [3] of the same molecule?
Answer: specifically inhibited the growth of the cancer cell lines and induced apoptosis

Question: What about the “growth inhibition and apoptosis induction of normal control cell lines (IC50 calculation)” value [4] of the same molecule?
Answer: inhibited cell growth and induced apoptosis, similarly to the treatment with Peptide 5C

Question: What about the “effect on normal cell lines (microscopy)” value [5] of the same molecule?
Answer: without substantially affecting the normal cell lines

Question: And the “relative viability (MTT), 293T, compared with FQI1” value [6]?
Answer: inhibited the growth of the glioblastoma cell lines and induced apoptosis similarly to FQI1

Question: What about the “relative viability (MTT), breast cancer cell lines, compared with FQI1” value [7] of the same molecule?
Answer: more effectively inhibited the growth of the breast cancer cell lines and induced apoptosis than FQI1

Question: What about the “cytotoxicity (MTT) in hESCs” value [8] of the same molecule?
Answer: slight cytotoxicity at high concentrations

Question: What about the “CP2c-mediated transcriptional activity (luciferase reporter)” value [9] of the same molecule?
Answer: effectively inhibit CP2c-mediated transcriptional activity compared to FQI1

Question: And the “relative viability (MTT), glioblastoma cell lines, compared with FQI1” value [10]?
Answer: more effectively inhibited the growth of the glioblastoma cell lines and induced apoptosis than FQI1

Question: With HERRESNYPQRP [Peptide 5] as the molecule, how does the “inhibition of CP2c-DNA binding (DIP assay)” value [11] read?
Answer: specifically inhibited the CP2c-DNA binding in a concentration-dependent manner

Question: And the “inhibition of CP2c-DNA binding (DNA immunoprecipitation)” value [12]?
Answer: inhibits CP2c-DNA binding in a concentration-dependent manner

Question: Which “IC50 compared with Peptide 5-2C” value ([13]; 48 h) does the source give for “Peptide 5-2CB: biotin-tagged Lys linked to the C-terminal Cys residue of Peptide 5-2C (NYPQRPCRGDKGPDCK(Biotin); not fully specified; cysteine pairing not given here)” here?
Answer: had IC50 values similar to Peptide 5-2C

Question: And the “cancer cell growth interruption and apoptosis (MTT)” value ([13]; two batches, increasing concentrations)?
Answer: induced cancer cell-specific cell growth interruption and apoptosis

B1: alpha-globin promoter CP2c site probe (dsDNA)
DNA 1: GATCCCAAGTTTTACTCGGTAGAGCAAGCACAAACCAGG
DNA 2: CCTGGTTTGTGCTTGCTCTACCGAGTAAAACTTGGGATC
Question: Does B1 bind [14]?
Answer: binds
